These results are taken from patent US12053549B2, “Laxative tablet” (SETOLAS Holdings, Inc., priority 2018, dated 2024).

This data set can be described thus: Volume-based 50% particle diameter (D50) of raw materials by laser diffractometry. The class given is physicochemical. To be noted: raw material. Here is the method:
0.7 g of magnesium oxide was placed in a beaker with 70 mL of 0.2% sodium hexametaphosphate solution, and the mixture was subjected to dispersion treatment (3 minutes) using an ultrasonic homogenizer (Nippon Seiki, US-300). The volume-based 50% particle size (D50) of the magnesium oxide was then measured using a laser diffraction scattering particle size analyzer (Nikkiso, Microtrac).

For `[O]=[Mg]` [Magnesium oxide], the “volume-based 50% particle size (D50)” value was 6.5 μm.
